Data as given in patent US20240374523A1, “STABILIZED APILIMOD COMPOSITIONS AND USES THEREOF” (Orphai Therapeutics Inc., priority 2021, published 2024).
≈ marks a conversion by molar mass, not a printed value. Entries after “also recorded” stand apart in the source; their conditions may differ. Where a name gives a salt, the structure may show the parent alone. Read-outs that look alike come from different tables or passages of the source.

How the values were obtained:
[1] = cited from earlier work
[2] = PXRD of residual solids after the IDR experiment; type: physicochemical; conditions: pellet surface after IDR experiment, compared with input API
Description: X-Ray Powder Diffraction (XRPD). […] Configuration on the incidental beam side: variable divergence slits (10 mm irradiated length), 0.04 rad Soller slits, fixed anti-scatter slit) (0.50°, and 10 mm beam mask. Configuration on the diffracted beam side: variable anti-scatter slit (10 mm observed length) and 0.02 rad Soller slit. Samples were mounted flat on zero-background Si wafers.
At the end of the IDR analysis, the pellet surface was analyzed by PXRD and compared to its corresponding input API for any physical changes.

[3] = test system: synovial IL-12 and IL-23 expression; conditions: patients with rheumatoid arthritis, Phase II (Krauz et al. 2012); cited from earlier work
[4] = test system: active Crohn's disease; conditions: active Crohn's disease (Sands et al. 2010); cited from earlier work
[5] = test system: IL-12/IL-23 synthesis; conditions: oral administration, patients with psoriasis, open-label (Wada et al. 2012); cited from earlier work
[6] = Solubility of apilimod vs pH in 0.1N HCl and Britton-Robinson buffers; type: physicochemical; conditions: for solubility at 3 days / solubility thermodynamic at 3 days: thermodynamic from solid; for solubility thermodynamic at 3 days: Britton-Robinson buffer
Description: Next, the solubility of apilimod at various pH was evaluated. The samples were prepared at room temperature in 0.1N HCl (pH 1) and Britton-Robinson buffers (BRB) pH 2, 3, 4, 5, 6, 7 and 8. After 3 days, each sample was centrifuged for 30 min, the solution was filtered and the concentration of apilimod determined by HPLC analysis. HPLC analysis was carried out using an XTerra MS C18 (5 μm 4.6×150 mm) column and 18-minute gradient HPLC conditions.

[7] = Kinetic solubility in FaSSIF (pH 6.5); type: physicochemical; conditions: FaSSIF pH 6.5, 1 hour
Description: Additional kinetic solubility studies were carried out in Fasted State Simulated Intestinal Fluid (FaSSIF) at pH6.5 at ambient temperature and the results are shown in FIG. 3. FaSSIF helps reveal how an oral drug is likely to dissolve and potentially be absorbed in fluid from the upper intestine after drinking a glass of water. […] After 1 hour of stirring, all samples appeared to be hazy suspensions, but after 4 and 24 hours their appearance changed to a milky white suspension by PXRD analysis.

[8] = Intrinsic dissolution rate (stationary disk, 0.01N HCl); type: physicochemical; parameters: Intrinsic Dissolution Rate free base equivalent: unit not given here; conditions: 37° C.; for Intrinsic Dissolution Rate free base equivalent: disk pressed at 3900 psi, 700 mL 0.01N HCl, paddle 50 rpm, UV 333 nm
Description: Stationary disks for apilimod free base and the nine apilimod salts were prepared. Intrinsic dissolution rate of the free base and the nine salts were prepared from preparations at 3900 psi. Each disk was placed into a flat bottom vessel containing 700 mL of 0.01N HCl medium equipped with a Distek Dissolution bath, and a Distek cirvulator/heater set to 37°° C. with a paddle speed of 50 rpm. The Opt-Diss 405 system single analytical wavelength settings was 333 nm with a background wavelength setting of 400 nm and reading were taken every 1 minute to 35 minutes. […] The kinetic solubility of the salt behavior is unpredictable and the dramatic difference between the non-mesylate salts was an unexpected discovery in the behavior of the salts.

[9] = Kinetic solubility in FaSSGF (pH 1.6); conditions: after test in FaSSGF
Description: Kinetic solubility studies were carried out on the various apilimod salts provided in Table 1 in Fasted State Simulated Gastric Fluid (FaSSGF) at pH 1.6 at ambient temperature. FaSSGF is a dissolution medium that has the average acidic pH and similar osmolarity of fasted gastric fluid. FaSSGF that can help reveal how an oral drug is likely to behave in the stomach after drinking a glass of water. The stability, solubility and dissolution data generated from testing in FaSSGF can help identify critical factors influencing a drug's absorption in the fasted state, and in turn facilitate the selection of the appropriate solid state and formulation approach for a drug.

[10] = aqueous solubility of the disalt; cited from earlier work
[11] = pKa of the counter-acid, not of the apilimod salt

## 1-hydroxy-2-naphthoate
[1]; [11]
  pKa of Acid (first value): 2.7
  pKa of Acid (second value): 13.5

## Cc1cccc(/C=N/Nc2cc(N3CCOCC3)nc(OCCc3ccccn3)n2)c1 [Apilimod]
[2]; listed as Free base
  Residual Solids By XRPD: Matches Input
[2]; listed as free base
  Residual Solids By XRPD: match the XRPD pattern of the initial input material
[3]
  effect on synovial IL-12 and IL-23 expression: failed to alter synovial IL-12 and IL-23 expression
[4]
  efficacy over placebo: did not demonstrate efficacy over placebo
  tolerability: well tolerated
[5]
  immunomodulatory activity: showed immunomodulatory activity supporting the inhibition of IL-12/IL-23 synthesis
[6]; 0.1N HCl, pH 1, simulated gastric fluid, pH of approximately 1, read-out: solubility
  solubility at 3 days: > 10000 µg/mL
[6]; BRB pH 2
  PXRD of Residuals Day 3: Phosphate salt
[6]; BRB pH 2, medium pH 1.99, prep. 11 mg/mL, room temperature, Day 3 pH 2.75
  Conc Day 3: 137 µg/mL
[6]; BRB pH 3
  PXRD of Residuals Day 3: Phosphate salt
[6]; BRB pH 4
  PXRD of Residuals Day 3: Free base, hydrate Group B
[6]; BRB pH 5
  PXRD of Residuals Day 3: Free base, hydrate Group B
[6]; BRB pH 6
  PXRD of Residuals Day 3: Free base, hydrate Group B
[6]; BRB pH 7
  PXRD of Residuals Day 3: Free base, hydrate Group B
[6]; BRB pH 8
  PXRD of Residuals Day 3: Free base, hydrate Group B
[6]; aqueous buffer, BRB pH 2, medium pH 1.99, prep. 11 mg/mL, room temperature, Day 3 pH 2.75, read-out: Conc Day 3
  solubility thermodynamic at 3 days: 137 µg/mL (≈ 327 µM)
[6]; aqueous buffer, BRB pH 3, medium pH 2.88, prep. 2.8 mg/mL, room temperature, Day 3 pH 3.61, read-out: Conc Day 3
  solubility thermodynamic at 3 days: 17.3 µg/mL (≈ 41.3 µM)
[6]; aqueous buffer, BRB pH 4, medium pH 4.11, prep. 2.8 mg/mL, room temperature, Day 3 pH 4.22, read-out: Conc Day 3
  solubility thermodynamic at 3 days: 2.3 µg/mL (≈ 5.5 µM)
[6]; aqueous buffer, BRB pH 5, medium pH 5.04, prep. 2.8 mg/mL, room temperature, Day 3 pH 5.08, read-out: Conc Day 3
  solubility thermodynamic at 3 days: 0.2 µg/mL (≈ 0.478 µM)
[6]; aqueous buffer, BRB pH 6, medium pH 6.15, prep. 2.7 mg/mL, room temperature, Day 3 pH 6.18, read-out: Conc Day 3
  solubility thermodynamic at 3 days: < 0.1 µg/mL
[6]; aqueous buffer, BRB pH 7, medium pH 7.18, prep. 2.7 mg/mL, room temperature, Day 3 pH 7.21, read-out: Conc Day 3
  solubility thermodynamic at 3 days: < 0.1 µg/mL
[6]; pH 7.9, aqueous buffer, BRB pH 8, medium pH 7.90, prep. 2.8 mg/mL, room temperature, Day 3 pH 8.01, read-out: Conc Day 3
  solubility thermodynamic at 3 days: < 0.1 µg/mL
[6]; pH 1 (0.1N HCl)
  PXRD of Residuals Day 3: In solution; no excess solid
[6]; simulated gastric fluid, pH 1 (0.1N HCl), medium pH 1.08, prep. 11 mg/mL, room temperature, Day 3 pH 1.44, read-out: Conc Day 3
  solubility at 3 days: > 10700 µg/mL

## Cc1cccc(/C=N/Nc2cc(N3CCOCC3)nc(OCCc3ccccn3)n2)c1 [HCl]
[2]
  Residual Solids By XRPD: match the XRPD pattern of the initial input material; also recorded: Matches Input
[1]; strong acids required for disalt formation, per the '436 patent
  pKa of acid: −4.5
[7]
  solubility in FaSSIF relative to other forms: higher solubility at 1 hour compared to the other salts and the freebase

## Cc1cccc(/C=N/Nc2cc(N3CCOCC3)nc(OCCc3ccccn3)n2)c1.Cc1cccc(/C=N/Nc2cc(N3CCOCC3)nc(OCCc3ccccn3)n2)c1.O=C(O)/C=C/C(=O)O [Hemi-fumarate]
[2]
  Residual Solids By XRPD: Matches Input
[2]; listed as hemi-fumarate
  Residual Solids By XRPD: match the XRPD pattern of the initial input material
[8]; 0.01N HCl
  intrinsic dissolution rate relative to D/L-Lactate and HCl salts: less that 10-times lower
[1]; [11]
  pKa of Acid (first value): 3.0
  pKa of Acid (second value): 4.4
[9]
  residues by powder diffraction (PXRD): crystalline, and matched input salts

## Cc1cccc(/C=N/Nc2cc(N3CCOCC3)nc(OCCc3ccccn3)n2)c1.O=C(O)CC(=O)O [Malonate]
[2]
  Residual Solids By XRPD: Matches Input
[2]; listed as malonate
  Residual Solids By XRPD: match the XRPD pattern of the initial input material
[1]; [11]
  pKa of Acid (first value): 2.8
  pKa of Acid (second value): 5.7

## Cc1cccc(/C=N/Nc2cc(N3CCOCC3)nc(OCCc3ccccn3)n2)c1.O=P(O)(O)O [Phosphate]
[2]
  Residual Solids By XRPD: Matches Input
[2]; listed as phosphate
  Residual Solids By XRPD: match the XRPD pattern of the initial input material
[1]; [11]
  pKa of Acid (first value): 2.0
  pKa of Acid (second value): 7.1
  pKa of Acid (third value): 12.3

## Cc1cccc(/C=N/Nc2cc(N3CCOCC3)nc(OCCc3ccccn3)n2)c1.O=C(O)CCC(=O)O [Succinate]
[1]; [11]
  pKa of Acid (first value): 4.2
  pKa of Acid (second value): 5.6

## Cc1cccc(C=NNc2cc(N3CCOCC3)nc(OCCc3ccccn3)n2)c1.Cl.Cl [dichloride]
[10]
  solubility in water: 213000 µg/mL

## Glycolate
[2]
  Residual Solids By XRPD: consistent with the input material and the poorly crystalline phase
[8]
  Intrinsic Dissolution Rate free base equivalent: 0.2670
[1]; [11]
  pKa of Acid (first value): 3.3

## L-Tartrate
[2]
  Residual Solids By XRPD: match the XRPD pattern of the initial input material; also recorded: Matches Input
[8]
  Intrinsic Dissolution Rate free base equivalent: 0.3399
[1]; [11]
  pKa of Acid (first value): 3.0
  pKa of Acid (second value): 4.4

## Maleate
[2]
  Residual Solids By XRPD: Matches Input
[2]; listed as maleate
  Residual Solids By XRPD: match the XRPD pattern of the initial input material
[8]
  Intrinsic Dissolution Rate free base equivalent: 0.0871
[1]; [11]
  pKa of Acid (first value): 1.9
  pKa of Acid (second value): 6.2
[9]
  residues by powder diffraction (PXRD): crystalline, and matched input salts
